Results reported in patent US20230159496A1, “COMPOUNDS AND METHODS FOR MODULATING SPLICING” (REMIX THERAPEUTICS INC., priority 2020, published 2023).
Like-named read-outs stand apart in the source and are kept apart here.

Columns and labels:
Type in all cases: cell-based
HTT mRNA = assay: Splicing assay (RT-qPCR) monitoring HTT canonical junction (CJ) and alternative junction (AJ) mRNA isoforms; conditions: A673 or K562 cells, 24 h treatment, top dose 10 uM
Outline: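 A673 or K562 cells treated 24 h at 37 °C with an 11-point 3-fold dilution (top 10 uM final, DMSO ≤0.25%). Lysates assayed by one-step RT-qPCR for HTT CJ and AJ isoforms, normalized to GAPDH, GUSB (K562) or PPIA (A673).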

HTT CJ mRNA = assay: Gene panel canonical junction qPCR assay, HTT; conditions: decrease in CJ mRNA levels, gene panel; read-out: HTT IC50
Outline: (§1)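 A673 or K562 cells were treated for 24 h at 37 °C with an 11-point 3-fold dilution, top dose 10 uM, DMSO ≤0.25%. Canonical junction mRNA in lysates was quantified by one-step RT-qPCR and normalized to GAPDH, GUSB or PPIA.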

SMN2 CJ mRNA = assay: Gene panel canonical junction qPCR assay, SMN2; conditions: decrease in CJ mRNA levels, gene panel; read-out: SMN2 IC50
Outline: as §1

Target C CJ mRNA = assay: Gene panel canonical junction qPCR assay, Target C; conditions: decrease in CJ mRNA levels, gene panel; read-out: Target C IC50
Outline: as §1

[1] = decrease in CJ mRNA (50% response), read-out: HTT CJ AC50
[2] = increase in AJ mRNA (50% response), read-out: HTT AJ AC50

Row | IC50 (HTT CJ mRNA) | IC50 (SMN2 CJ mRNA) | IC50 (Target C CJ mRNA) | SMILES | AC50 (HTT mRNA; [1]) | AC50 (HTT mRNA; [2])
1 | < 100 nM | < 100 nM | < 100 nM | Cc1cn2nc(-c3cc(F)c4c(=O)n(C5CCNCC5)cnc4c3)cc(C)c2n1 [Compound 243, 7-(2,8-dimethylimidazo[1,2-b]pyridazin-6-yl)-5-fluoro-3-(piperidin-4-yl)quinazolin-4(3H)-one] | < 100 nM | < 100 nM
2 | > 10000 nM | > 10000 nM | > 10000 nM | Cn1cc2cc(-n3cnc4cc(C5CCNCC5)ccc4c3=O)ccc2n1 [Compound 172, 3-(2-methyl-2H-indazol-5-yl)-7-(piperidin-4-yl)quinazolin-4(3H)-one] | > 10000 nM | > 10000 nM
3 | 1000 to 10000 nM | < 100 nM | 1000 to 10000 nM | Cc1cn2nc(-c3ccc4c(c3)CCN(C3CCNC(C)(C)C3)C4=O)cc(C)c2n1 (stereo not shown) [Compound 267] | 1000 to 10000 nM | 100 to 1000 nM
4 | 1000 to 10000 nM | 100 to 1000 nM | > 10000 nM | Cc1cn2cc(-c3ccc4c(=O)n(C5CCN(C)CC5)cnc4c3F)cc(F)c2n1 [Compound 227, 8-fluoro-7-(8-fluoro-2-methylimidazo[1,2-a]pyridin-6-yl)-3-(1-methylpiperidin-4-yl)quinazolin-4(3H)-one] | 1000 to 10000 nM | 1000 to 10000 nM
5 | 1000 to 10000 nM | < 100 nM | 1000 to 10000 nM | Cc1cn2cc(-c3ccc4c(=O)n(C5CCNCC5)cnc4c3)ncc2n1 [Compound 297] | 1000 to 10000 nM | 1000 to 10000 nM
6 | 1000 to 10000 nM | 100 to 1000 nM | 1000 to 10000 nM | Cc1cn2nc(-c3ccc4c(=O)n(C5CCN(C)CC5)cnc4c3)cc2c(C)n1 [Compound 303] | 1000 to 10000 nM | 1000 to 10000 nM
7 | > 10000 nM | > 10000 nM | > 10000 nM | Cc1cn2nc(-c3ccc4nc(NC5CCNCC5)[nH]c(=O)c4c3)cc(C)c2n1 [Compound 192, 6-(2,8-dimethylimidazo[1,2-b]pyridazin-6-yl)-2-(piperidin-4-ylamino)quinazolin-4(3H)-one] | > 10000 nM | > 10000 nM
8 | 1000 to 10000 nM | 100 to 1000 nM | > 10000 nM | Cc1cn2cc(-c3ccc4c(c3)CCN(C3CCNCC3)C4=O)cc(C)c2n1 [Compound 217] | 1000 to 10000 nM | 1000 to 10000 nM
9 | 1000 to 10000 nM | 1000 to 10000 nM | 1000 to 10000 nM | Cc1cn2nc(-c3ccc4c(=O)n(C5CCN(C)CC5)cnc4c3)nc2c(C)n1 [Compound 288, 7-{6,8-dimethyl-[1,2,4]triazolo[1,5-a]pyrazin-2-yl}-3-(1-methylpiperidin-4-yl)quinazolin-4-one] | 1000 to 10000 nM | 1000 to 10000 nM
10 | > 10000 nM | 1000 to 10000 nM | > 10000 nM | Cc1cc(-c2ccc3c(=O)n(C4CC(C)(C)NC(C)(C)C4)cnc3n2)cc2cn(C)nc12 [Compound 179] | > 10000 nM | > 10000 nM
11 | 1000 to 10000 nM | 1000 to 10000 nM | 1000 to 10000 nM | Cc1cc(-c2ccc3nc(N4CCNCC4)[nH]c(=O)c3c2)cc2cn(C)nc12 [Compound 166, 6-(2,7-dimethyl-2H-indazol-5-yl)-2-(piperazin-1-yl)quinazolin-4(3H)-one] | 1000 to 10000 nM | 1000 to 10000 nM
12 | 1000 to 10000 nM | 100 to 1000 nM | 1000 to 10000 nM | Cc1cn2cc(-c3ccc4c(=O)n(C5CCN(C)CC5)cnc4c3)cc(F)c2n1 [Compound 207, 7-(8-fluoro-2-methylimidazo[1,2-a]pyridin-6-yl)-3-(1-methylpiperidin-4-yl)quinazolin-4(3H)-one] | 1000 to 10000 nM | 1000 to 10000 nM
13 | < 100 nM | < 100 nM | 100 to 1000 nM | Cc1cn2nc(-c3cc(F)c4c(=O)n(C5CCN(C)CC5)cnc4c3)cc(C)c2n1 [Compound 242, 7-(2,8-dimethylimidazo[1,2-b]pyridazin-6-yl)-5-fluoro-3-(1-methylpiperidin-4-yl)quinazolin-4(3H)-one] | < 100 nM | < 100 nM
14 | > 10000 nM | 1000 to 10000 nM | > 10000 nM | O=c1c2ccc(-c3cn[nH]c3)cc2cnn1C1CCNCC1 [Compound 261] | > 10000 nM | > 10000 nM
15 | 1000 to 10000 nM | < 100 nM | > 10000 nM | Cc1cn2nc(-c3ccc4c(c3)CCN(C3CCN(C)CC3)C4=O)cc(C)c2n1 [Compound 268] | 1000 to 10000 nM | 1000 to 10000 nM
16 | < 100 nM | < 100 nM | < 100 nM | Cc1cn2nc(-c3ccc4c(=O)n(C5CCNC6(CC6)C5)ncc4c3)cc(C)c2n1 (stereo not shown) [Compound 274] | < 100 nM | < 100 nM
17 | > 10000 nM | > 10000 nM | > 10000 nM | O=C1c2ccc(-c3cn[nH]c3)cc2CCN1C1CCNCC1 [Compound 220] | > 10000 nM | > 10000 nM
18 | 1000 to 10000 nM | 100 to 1000 nM | 1000 to 10000 nM | Cc1cn2nc(-c3ccc4c(c3)CCN([C@@H]3CCN[C@H](C)C3)C4=O)cc(C)c2n1 [Compound 281] | 1000 to 10000 nM | 1000 to 10000 nM
19 | 1000 to 10000 nM | 100 to 1000 nM | 1000 to 10000 nM | Cc1cn2nc(-c3ccc4c(=O)n(C5CCN(C)CC5)cnc4c3)cc(C)c2n1 [Compound 176, 7-(2,8-dimethylimidazo[1,2-b]pyridazin-6-yl)-3-(1-methylpiperidin-4-yl)quinazolin-4(3H)-one] | 1000 to 10000 nM | 1000 to 10000 nM
20 | 1000 to 10000 nM | < 100 nM | 1000 to 10000 nM | Cc1cn2cc(-c3ccc4c(=O)n(C5CCNCC5)ncc4c3)cc(C(F)(F)F)c2n1 [Compound 262] | 1000 to 10000 nM | 1000 to 10000 nM
21 | > 10000 nM | > 10000 nM | > 10000 nM | CN1CCN(c2ccc3c(=O)n(-c4ccc5cn(C)nc5c4)cnc3c2)CC1 [Compound 178, 3-(2-methyl-2H-indazol-6-yl)-7-(4-methylpiperazin-1-yl)quinazolin-4(3H)-one] | > 10000 nM | > 10000 nM
22 | 1000 to 10000 nM | 1000 to 10000 nM | 1000 to 10000 nM | Cc1cn2cc(-c3ccc4c(=O)n(C5CCN(C)CC5)cnc4c3)c(C)cc2n1 [Compound 246] | 1000 to 10000 nM | 1000 to 10000 nM
23 | > 10000 nM | 100 to 1000 nM | > 10000 nM | Cc1cn2cc(-c3ccc4c(c3)CCN(C3CCNCC3)C4=O)cc(C(F)(F)F)c2n1 [Compound 252, 6-[2-methyl-8-(trifluoromethyl)imidazo[1,2-a]pyridin-6-yl]-2-(piperidin-4-yl)-3,4-dihydroisoquinolin-1-one] | > 10000 nM | > 10000 nM
24 | > 10000 nM | > 10000 nM | > 10000 nM | Cn1cc2cc(-c3ccc4c(c3)CCN(C3CCNCC3)C4=O)cc(F)c2n1 [Compound 225] | > 10000 nM | > 10000 nM
25 | 100 to 1000 nM | < 100 nM | 1000 to 10000 nM | Cc1cn2nc(-c3ccc4c(=O)n([C@@H]5CCN(C)[C@H](C)C5)ncc4c3)cc(C)c2n1 [Compound 277] | 100 to 1000 nM | 100 to 1000 nM
26 | 100 to 1000 nM | 100 to 1000 nM | 100 to 1000 nM | Cc1cn2cc(-n3cnc4cc(N5CCNCC5)ccc4c3=O)cc(F)c2n1 [Compound 228, 3-(8-fluoro-2-methylimidazo[1,2-a]pyridin-6-yl)-7-(piperazin-1-yl)quinazolin-4(3H)-one] | 100 to 1000 nM | 100 to 1000 nM
